These results are taken from ChEMBL document CHEMBL1136712, “Oxyguanidines: application to non-peptidic phenyl-based thrombin inhibitors” (Bioorg Med Chem Lett, 2003).

One data set addresses Prothrombin (Homo sapiens, UniProt P00734). In words: Inhibitory activity against alpha-human thrombin.
Another data set is filed under the species Homo sapiens. Put plainly: The apparent permeability coefficient (Papp) was quantitated in the human Caco-2 monolayer assay. Format: functional. For orientation: Caco-2 monolayers are a common model of the intestinal barrier.
The next data set addresses Coagulation factor X (Homo sapiens, UniProt P00742). Put plainly: In vitro inhibitory activity against serine protease FXa.
The species entered for a further data set is Mus musculus. In words: In vitro metabolic potential in mouse liver microsomes. Format: ADME.
In a further data set the target is Plasminogen (Homo sapiens, UniProt P00747). In words: In vitro inhibitory activity against serine protease Plasmin.
Chain of Plasminogen (P00747 97-580 limits assumed): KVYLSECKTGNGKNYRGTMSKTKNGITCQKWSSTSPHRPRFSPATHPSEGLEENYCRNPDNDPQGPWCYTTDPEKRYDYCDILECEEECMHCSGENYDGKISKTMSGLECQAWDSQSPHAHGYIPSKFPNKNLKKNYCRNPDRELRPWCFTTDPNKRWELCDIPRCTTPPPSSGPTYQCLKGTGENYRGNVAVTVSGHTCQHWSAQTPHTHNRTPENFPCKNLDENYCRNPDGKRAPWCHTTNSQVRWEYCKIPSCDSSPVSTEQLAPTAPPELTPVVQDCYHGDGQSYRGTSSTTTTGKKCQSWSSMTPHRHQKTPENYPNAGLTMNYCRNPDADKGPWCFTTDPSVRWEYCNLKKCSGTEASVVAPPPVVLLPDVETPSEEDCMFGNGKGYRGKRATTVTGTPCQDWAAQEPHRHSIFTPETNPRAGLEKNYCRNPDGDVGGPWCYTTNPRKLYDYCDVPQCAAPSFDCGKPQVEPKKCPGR
Chain of Plasminogen (P00747 581-810 limits assumed): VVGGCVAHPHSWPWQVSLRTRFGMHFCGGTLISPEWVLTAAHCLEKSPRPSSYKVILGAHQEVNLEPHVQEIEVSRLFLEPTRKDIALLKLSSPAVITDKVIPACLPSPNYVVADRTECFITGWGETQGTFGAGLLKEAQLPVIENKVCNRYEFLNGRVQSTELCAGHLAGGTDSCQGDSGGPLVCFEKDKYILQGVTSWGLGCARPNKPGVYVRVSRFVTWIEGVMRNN
A further data set concerns the target T1, Neutrophil elastase (Homo sapiens, UniProt P08246).
T1 sequence (P08246 whole entry): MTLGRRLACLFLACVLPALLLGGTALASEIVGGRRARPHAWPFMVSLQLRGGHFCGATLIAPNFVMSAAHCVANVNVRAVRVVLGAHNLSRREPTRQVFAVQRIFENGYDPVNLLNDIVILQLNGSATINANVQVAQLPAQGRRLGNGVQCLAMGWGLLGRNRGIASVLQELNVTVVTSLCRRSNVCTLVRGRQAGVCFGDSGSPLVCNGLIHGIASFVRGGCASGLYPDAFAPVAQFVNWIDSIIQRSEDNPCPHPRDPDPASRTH
Put plainly: In vitro inhibitory activity against serine protease Elastase.

A short description of data set [1]: Disassociation constant was determined. Format: ADME.
Data set [2] can be described thus: Half life period by iv administration in dog at a dose of 6 mg/kg. It counts as ADME, organism-based, Canis lupus familiaris. Also noted: dose 6 mg/kg, route intravenous. As to conditions: in vivo.
A further data set addresses Serine protease 1 (Homo sapiens, UniProt P07477). Put plainly: In vitro inhibitory activity against serine protease Trypsin.
The next data set is filed under the species Canis familiaris. In words: In vitro metabolic potential in dog liver microsomes. Format: ADME, Canis lupus familiaris.
A short description of data set [3]: In vitro metabolic potential in human liver microsomes. It counts as ADME, Microsome. On the technique in general: Liver microsomes are vesicles of endoplasmic reticulum, rich in cytochrome P450 enzymes.
Data set [4] in a line: Plasma clearance rate by iv administration in dog at a dose of 6 mg/kg. Format: ADME, organism-based, Canis lupus familiaris. Also noted: dose 6 mg/kg, route intravenous.
In the next data set the target is Chymotrypsinogen B (Homo sapiens, UniProt P17538). Put plainly: In vitro inhibitory activity against serine protease Chymotrypsin.
Chain of Chymotrypsinogen B (P17538 34-164 limits assumed, other chains not shown): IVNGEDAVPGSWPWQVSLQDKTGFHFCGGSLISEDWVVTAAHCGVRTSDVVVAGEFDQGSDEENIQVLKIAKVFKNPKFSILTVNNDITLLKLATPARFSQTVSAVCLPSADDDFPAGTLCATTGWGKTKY
Chain of Chymotrypsinogen B (P17538 167-263 limits assumed, other chains not shown): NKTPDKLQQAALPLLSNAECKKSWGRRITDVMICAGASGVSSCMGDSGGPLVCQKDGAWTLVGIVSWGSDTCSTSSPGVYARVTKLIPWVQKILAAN
Data set [5] can be described thus: Oral bioavailability in dog. It counts as ADME, organism-based, Canis lupus familiaris. Particulars: in vivo.
The species entered for the next data set is Rattus norvegicus. In words: In vitro metabolic potential in rat liver microsomes. Format: ADME.

One may read the Ki as a measure of affinity in units of concentration, obtained from inhibition or displacement. The low end stands for higher affinity, the high end for lower affinity. Broadly, the Papp is a coefficient for how fast a substance crosses the barrier. What is called pKa is the negative logarithm of the acid dissociation constant. The low end stands for a group that gives up its proton readily, the high end for a group that holds its proton tightly. The half-life is how long it takes for the measured level to halve. What is called clearance is the rate of elimination divided by the concentration. Higher therefore signals a high capacity for elimination. A word on the bioavailability: it is dose-corrected exposure relative to a reference, in per cent. A higher bioavailability goes with much systemic uptake.

Chain of Serine protease 1 (P07477 whole entry): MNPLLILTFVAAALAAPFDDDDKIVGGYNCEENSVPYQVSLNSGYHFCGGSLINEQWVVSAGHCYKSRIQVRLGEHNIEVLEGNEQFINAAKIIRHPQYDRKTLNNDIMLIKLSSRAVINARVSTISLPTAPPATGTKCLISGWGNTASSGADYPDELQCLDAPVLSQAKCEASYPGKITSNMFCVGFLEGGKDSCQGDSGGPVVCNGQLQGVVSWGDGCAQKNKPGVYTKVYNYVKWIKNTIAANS
Chain of Coagulation factor X (P00742 41-179 limits assumed): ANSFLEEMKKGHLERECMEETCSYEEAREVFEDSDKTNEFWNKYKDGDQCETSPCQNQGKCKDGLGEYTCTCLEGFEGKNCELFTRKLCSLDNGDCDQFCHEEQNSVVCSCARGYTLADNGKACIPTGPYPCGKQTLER
Chain of Coagulation factor X (P00742 235-488 limits assumed): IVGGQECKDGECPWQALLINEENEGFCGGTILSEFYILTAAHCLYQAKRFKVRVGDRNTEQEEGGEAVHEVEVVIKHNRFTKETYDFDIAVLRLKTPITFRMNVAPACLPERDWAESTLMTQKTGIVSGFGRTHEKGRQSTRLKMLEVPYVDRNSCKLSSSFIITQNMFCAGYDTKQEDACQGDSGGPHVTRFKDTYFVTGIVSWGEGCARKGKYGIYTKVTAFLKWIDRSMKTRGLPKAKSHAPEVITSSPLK

Consider `CS(=O)(=O)c1ccccc1S(=O)(=O)Oc1cc(F)cc(OCC2(CON=C(N)N)CC2)c1`, for which the affinity on Prothrombin corresponds to a Ki of 49.3 nM.

On Prothrombin, `Cc1cc(OCCCON=C(N)N)cc(OS(=O)(=O)c2cccc3c2NCCC3)c1` showed a Ki of 31 nM.

At Prothrombin, `Cc1cc(OCC(O)CON=C(N)N)cc(OS(=O)(=O)c2ccccc2S(C)(=O)=O)c1` (stereo not drawn) yielded an inhibitory constant (Ki) of 137 nM. This Ki is about 4.4-fold higher than that of the compound before.

`Cc1cc(OCCCONC(=N)N)cc(OS(=O)(=O)c2ccccc2C#N)c1` displayed an inhibition constant (Ki) at Prothrombin of 9.9 nM.

At Prothrombin, `Cc1cc(OCCCON=C(N)N)cc(OS(=O)(=O)c2cccc(S(C)(=O)=O)c2)c1` yielded a Ki of 204 nM.

At Prothrombin, `Cc1cc(OCCCONC(=N)N)cc(OS(=O)(=O)c2cccc3cccnc23)c1` had an inhibition constant (Ki) of 6.7 nM.

Consider `Cc1cc(OCCCON=C(N)N)cc(OS(=O)(=O)c2ccccc2N)c1`, for which, on Prothrombin, the Ki was 86.6 nM.

Turning to `Cc1cc(OCCCON=C(N)N)cc(OS(=O)(=O)c2ccccc2S(C)(=O)=O)c1`, in the data set filed under Homo sapiens, the Papp worked out at 2.4 ×10⁻⁶ cm/s.

Turning to `Cc1cc(OCCCONC(=N)N)cc(OS(=O)(=O)c2ccc(S(C)(=O)=O)cc2S(C)(=O)=O)c1`, on Prothrombin, the affinity, expressed as Ki, was 749 nM.

For `COc1cc(OCCCONC(=N)N)cc(OS(=O)(=O)c2ccccc2S(C)(=O)=O)c1`, on Prothrombin, the affinity corresponds to a Ki of 34.6 nM. This Ki is about 22-fold lower than that of the compound before.

The compound `CS(=O)(=O)c1ccccc1S(=O)(=O)Oc1cc(CO)cc(OCC2(CON=C(N)N)CC2)c1` had an inhibitory constant (Ki) on Prothrombin of 403 nM.

In the case of `CCc1cc(OCCCONC(=N)N)cc(OS(=O)(=O)c2ccccc2S(C)(=O)=O)c1`, the Ki on Prothrombin amounted to 29.7 nM.

Compound `Cc1cc(OCCCON=C(N)N)cc(OS(=O)(=O)c2cccc3cnccc23)c1` had a Ki on Prothrombin of 13.2 nM.

For `Cc1cc(OCCCONC(=N)N)cc(OS(=O)(=O)c2ccccc2S(C)(=O)=O)c1`, the Ki at Coagulation factor X, at Plasminogen, at Neutrophil elastase, at Serine protease 1 and at Chymotrypsinogen B was greater than 22000 nM in each case. The Microsomal stability in the data set listed under Mus musculus was 30.8 pg min-1 (mg of protein)-1; in the data set filed under Canis familiaris, 21.1 pg min-1 (mg of protein)-1; in data set [3], 50.4 pg min-1 (mg of protein)-1; in the data set listed under Rattus norvegicus, 69.5 pg min-1 (mg of protein)-1. In [1], this compound had a pKa of 7.05. This compound also had a half-life in data set [2] of 7.3 h. In data set [4], this compound gave a clearance of 6.9 mL/min/kg. Besides, the bioavailability in data set [5] was found to be 95%.

`CS(=O)(=O)c1ccccc1S(=O)(=O)Oc1cc(Cl)cc(OCCCON=C(N)N)c1` came in with a Ki at Prothrombin of 39.4 nM.

Take `Cc1cc(OCCCONC(=N)N)cc(OS(=O)(=O)c2ccc3c(c2)S(=O)(=O)CC3)c1`: the affinity at Prothrombin, expressed as Ki, was 102 nM.

In turn, `C=C(CONC(=N)N)COc1cc(C)cc(OS(=O)(=O)c2ccccc2S(C)(=O)=O)c1` returned a Ki at Prothrombin of 32.4 nM.

Compound `Cc1cc(OCC(F)CON=C(N)N)cc(OS(=O)(=O)c2ccccc2S(C)(=O)=O)c1` (stereo not drawn) displayed a Ki at Prothrombin of 114 nM.

Regarding `Cc1cc(OCC(F)(F)CON=C(N)N)cc(OS(=O)(=O)c2ccccc2S(C)(=O)=O)c1`, on Prothrombin, the Ki was determined as 364 nM. Against the preceding compound, the Ki is about 3.2-fold higher.

The compound `COc1ccccc1S(=O)(=O)Oc1cc(C)cc(OCCCONC(=N)N)c1` returned a Ki at Prothrombin of 6.7 nM.

On to `Cc1cc(OCCCONC(=N)N)cc(OS(=O)(=O)c2ccccc2S(=O)(=O)c2ccccc2)c1`, for which the inhibition constant Ki on Prothrombin came out at 4.8 nM.
